Measured values: patent US20260007666A1 (INAYA THERAPEUTICS, INC., priority 2022, published 2026)

Assay: Rat pharmacokinetics, IV imatinib mesylate vs IT imatinib free base/cyclodextrin (Example 9)
Format: in vivo, Sprague Dawley rats
Conditions: IV data, 60 min collection period
Experimental: Lung tissue and blood were collected for analysis.
Experimental Design and Execution: In brief, after the animals were transferred to study, all animals were randomly assigned to treatment groups per the study design below. Animals were treated either via intravenous (IV) administration of formulation R1, or via intratracheal (IT) administration for formulation R2 of the test article.
Averages for each time point are reported for groups/time points that have a minimum of 2 animals.
The Therapeutic Advantage (Rd) in Table 8 was calculated using the following equation: […]

SMILES: Cc1ccc(NC(=O)c2ccc(CN3CCN(C)CC3)cc2)cc1Nc1nccc(-c2cccnc2)n1 [imatinib free base, imatinib]
- tissue distribution lung vs plasma: preferentially accumulates in the lung tissue
